Laboratory results published in patent US20240285551A1, “A SMALL MOLECULE TNF-a INHIBITOR AND PREPARATION METHOD AND USE THEREOF” (FUDAN UNIVERSITY, priority 2021, published 2024).

Legend:
[1] = tested on: IL-6; experiment: serum IL-6 protein by ELISA, DSS acute UC mice; type: in vivo; conditions: 10 mg/kg
Procedure: (§1) Except for the normal group, all other groups of mice were allowed to freely drink a 3% DSS solution which was freshly prepared and replaced the next day (wherein the 3% DSS solution was prepared by weighing 3 g of a DSS powder (from MP Biomedicals, USA with a molecular weight of 36,000 to 50,000) and fully dissolving it in 100 mL of the drinking water for the mice); whereas the normal group was given blank drinking water; the control group mice drank water normally for 7 days, while the DSS group mice drank the 3% DSS solution freely for 7 days and were administrated for 6 days from the second day DSS was given. The mice were administered by gavage once a day with a volume of 10 mL/kg, wherein the normal control group and DSS group were gavaged with a solvent of 0.5% CMC-Na (wherein a 0.5% CMC-Na solution is at a concentration of 0.5 g/100 mL, the same below), while the other groups were separately gavaged with drugs dissolved in 0.5% CMC-Na.
(§2) To investigate the effects of compounds (R)-STU104, (S)-STU104, and (±)-STU104 on the secretion of such inflammatory factors as TNF-α, IL-1β, IL-6, and IL-23 by mice of the DSS induced acute ulcerative colitis model in C57 mice, we isolated serum after blood acquisition and detected the contents of such inflammatory factors as TNF-α, IL-1β, IL-6, and IL-23 in the serum of mice using ELISA.

[2] = tested on: DSS induced acute ulcerative colitis model in C57 mice; experiment: DSS induced acute ulcerative colitis in C57 mice (body weight, DAI, colon length, H&E pathology); type: in vivo; conditions: 10 mg/kg
Procedure: as §1
The normal control group mice were vivacious with glossy fur, stable weight gain, and normal stools appearing elliptical or spindle shaped.
In order to further evaluate the disease development for each group of acute UC mice, we performed DAI scoring on the loose and bloody stools etc. for each mouse (see panel B1 in FIG. 3). […] As the experiment progressed, the disease became gradually worsened, with some animals experiencing severe bloody stools and significant emaciation.
(§3) After dissection, the colon of each mouse was taken and the length of the colon was measured separately.

[3] = tested on: TNF-α; experiment: serum TNF-α protein by ELISA, DSS acute UC mice; type: in vivo; conditions: 10 mg/kg
Procedure: as §1, §2

[4] = tested on: IL-1β; experiment: serum IL-1β protein by ELISA, DSS acute UC mice; type: in vivo; conditions: 10 mg/kg
Procedure: as §1

[5] = tested on: IL-23; experiment: colon tissue IL-23 mRNA by qPCR, DSS acute UC mice; type: in vivo; conditions: 10 mg/kg
Procedure: as §1
(§4) After dissection, a segment of the colon was taken from the same part of each mouse, total RNAs were extracted from tissues, and mRNA expressions of such inflammatory factors as TNF-α, IL-1β, IL-6, and IL-23 in colon tissues of the mice were detected through qPCR.

[6] = tested on: TNF-α; experiment: colon tissue TNF-α mRNA by qPCR, DSS acute UC mice; type: in vivo; conditions: 10 mg/kg
Procedure: as §1, §4

[7] = tested on: IL-1β; experiment: colon tissue IL-1β mRNA by qPCR, DSS acute UC mice; type: in vivo; conditions: 10 mg/kg
Procedure: as §1, §4

[8] = tested on: IL-6; experiment: colon tissue IL-6 mRNA by qPCR, DSS acute UC mice; type: in vivo; conditions: 10 mg/kg
Procedure: as §1, §4

[9] = tested on: IL-23; experiment: serum IL-23 protein by ELISA, DSS acute UC mice; type: in vivo; conditions: 10 mg/kg
Procedure: as §1, §2

[10] = tested on: TNF-α; experiment: colon tissue TNF-α mRNA by qPCR, IL-10 knockout chronic UC mice; type: in vivo
Procedure: (§5) Ten C57 mice (aged 10-12 weeks, around 20 g) with an identified genotype of Wildtype were taken as the normal control group. […] The mice were administered by gavage once a day with a volume of 10 mL/kg, wherein the normal control group and DSS group were gavaged with a solvent of 0.5% CMC-Na while the other groups were separately gavaged with drugs dissolved in 0.5% CMC-Na.
as §4

[11] = tested on: IL-23; experiment: serum IL-23 protein by ELISA, IL-10 knockout chronic UC mice; type: in vivo
Procedure: as §5
(§6) To investigate the effects of (R)-STU104 on the secretion of such inflammatory factors as TNF-α, IL-1β, IL-6, and IL-23 by spontaneous IBD mice due to IL-10 knockout, we isolated serum after blood acquisition and detected the contents of such inflammatory factors as TNF-α, IL-1β, IL-6, and IL-23 in the serum of mice using ELISA.

[12] = tested on: IL-1β; experiment: colon tissue IL-1β mRNA by qPCR, IL-10 knockout chronic UC mice; type: in vivo
Procedure: as §5, §4

[13] = tested on: IL-6; experiment: serum IL-6 protein by ELISA, IL-10 knockout chronic UC mice; type: in vivo
Procedure: as §5, §6

[14] = tested on: chronic ulcerative colitis model in IL-10 whole gene knockout mice; experiment: chronic ulcerative colitis in IL-10 whole gene knockout mice (survival, body weight, colon length, H&E pathology); type: in vivo; conditions: for total mortality rate: gavage once a day
Procedure: as §5, §3

[15] = tested on: Mnk1, MK2, and elF4E in the p38 signaling pathway; experiment: western blotting of phosphorylation of p38 signaling pathway proteins in LPS induced RAW264.7 cells; type: cell-based; conditions: RAW264.7, 3.125, 6.25 and 12.5 μM, LPS 500 μg/L
Source text: (§7) To further clarify the inhibitory mechanism of (R)-STU104 on TNF-α release, we detected the effects of (R)-STU104 on phosphorylation levels of proteins related to the p38 signaling pathway (see FIG. 2). The p38 inhibitor (SB203580) was used as a positive control, and western blotting was used to detect protein expression levels.

[16] = tested on: TNF-α; experiment: serum TNF-α protein by ELISA, IL-10 knockout chronic UC mice; type: in vivo
Procedure: as §5, §6

[17] = tested on: TAK1; experiment: western blotting of TAK1 phosphorylation (upstream kinase of MKK3); type: cell-based
Source text: as §7

[18] = tested on: TNF-α; experiment: release of the inflammatory factor TNF-α by LPS induced macrophages (RAW264.7), RT-PCR; type: cell-based; conditions: Mus musculus, RAW264.7, LPS 1 μg/ml, 24 hours, read-out: IC50 with respect to the release of the inflammatory factor TNF-α
Procedure: LPS (1 μg/ml) and different concentrations of (±)-STU104 or (R)-STU104 (0.1 to 50 μM) were added respectively after the cells grew to a fused state, and incubated together at 37° C. under 5% CO2 for 24 hours. A blank control group was established, and RT-PCR was employed to detect the inhibition states of TNF-α in cells by these compounds.

[19] = tested on: IL-6; experiment: colon tissue IL-6 mRNA by qPCR, IL-10 knockout chronic UC mice; type: in vivo
Procedure: as §5, §4

[20] = tested on: IL-23; experiment: colon tissue IL-23 mRNA by qPCR, IL-10 knockout chronic UC mice; type: in vivo
Procedure: as §5, §4

[21] = tested on: IL-1β; experiment: serum IL-1β protein by ELISA, IL-10 knockout chronic UC mice; type: in vivo
Procedure: as §5, §6

## COc1ccc([C@@H]2CC(=O)c3cc(OC)cc(OC)c32)cc1 [(S)-STU104]
[1]
  inhibition ratio of IL-6 protein content in serum: 32.6%
[2]; compared with mesalazine 50 mg/kg
  improvement of acute UC symptoms: significantly lower than that in the mesalazine group
[2]; gavage once a day
  colon length recovery rate (inhibition of colon shortening): 14.5%
  recovery rate of colon pathological sections (H&E): 13.9%
[3]
  inhibition ratio of TNF-α protein content in serum: 10.2%
[4]
  inhibition ratio of IL-1β protein content in serum: 18.1%
[5]
  inhibition ratio of IL-23 mRNA in colon tissues: 10.6%
[6]
  inhibition ratio of TNF-α mRNA in colon tissues: 22.0%
[7]
  inhibition ratio of IL-1β mRNA in colon tissues: 27.7%
[8]
  inhibition ratio of IL-6 mRNA in colon tissues: 8.1%
[9]
  inhibition ratio of IL-23 protein content in serum: 18.9%

## COc1ccc([C@H]2CC(=O)c3cc(OC)cc(OC)c32)cc1 [(R)-STU104, 4,6-dimethoxy-3R-(4-methoxyphenyl)-2,3-dihydro-1H-indanone]
[10]; high dose (10 mg/kg)
  inhibition ratio of TNF-α mRNA in colon tissues: 68.5%
[10]; low dose (1 mg/kg)
  inhibition ratio of TNF-α mRNA in colon tissues: 24.7%
[10]; medium dose (3 mg/kg)
  inhibition ratio of TNF-α mRNA in colon tissues: 69.5%
[1]
  inhibition ratio of IL-6 protein content in serum: 71.5%
[2]; gavage once a day
  colon length recovery rate (inhibition of colon shortening): 34.6%
  recovery rate of colon pathological sections (H&E): 65.6%
[2]; gavage once a day, day 7
  DAI score inhibition ratio: 29.3%
  body weight recovery rate: 22.4%
[11]; high dose (10 mg/kg)
  inhibition ratio of IL-23 protein content in serum: 64.4%
[11]; low dose (1 mg/kg)
  inhibition ratio of IL-23 protein content in serum: 39.6%
[11]; medium dose (3 mg/kg)
  inhibition ratio of IL-23 protein content in serum: 58.2%
[3]
  inhibition ratio of TNF-α protein content in serum: 55.4%
[12]; high dose (10 mg/kg)
  inhibition ratio of IL-1β mRNA in colon tissues: 43.8%
[12]; low dose (1 mg/kg)
  inhibition ratio of IL-1β mRNA in colon tissues: 22.8%
[12]; medium dose (3 mg/kg)
  inhibition ratio of IL-1β mRNA in colon tissues: 36.1%
[13]; high dose (10 mg/kg)
  inhibition ratio of IL-6 protein content in serum: 57.6%
[13]; low dose (1 mg/kg)
  inhibition ratio of IL-6 protein content in serum: 34.4%
[13]; medium dose (3 mg/kg)
  inhibition ratio of IL-6 protein content in serum: 44.5%
[4]
  inhibition ratio of IL-1β protein content in serum: 70.1%
[14]; high-dose group (10 mg/kg)
  efficiency of weight gain (body weight recovery): 19.4%
  inhibition ratio of colon shortening: 41.2%
  recovery rate of colon pathological sections (H&E): 56.7%
  total mortality rate: no deaths occurred
[14]; low-dose group (1 mg/kg)
  efficiency of weight gain (body weight recovery): 13.6%
  inhibition ratio of colon shortening: 17.7%
  recovery rate of colon pathological sections (H&E): 33.0%
  total mortality rate: 20%
[14]; medium-dose group (3 mg/kg)
  efficiency of weight gain (body weight recovery): 14.8%
  inhibition ratio of colon shortening: 29.4%
  recovery rate of colon pathological sections (H&E): 50.5%
  total mortality rate: no deaths occurred
[15]
  phosphorylation of key proteins Mnk1, MK2, and elF4E in the p38 signaling pathway: inhibiting, in a concentration dependent manner
[5]
  inhibition ratio of IL-23 mRNA in colon tissues: 84.8%
[6]
  inhibition ratio of TNF-α mRNA in colon tissues: 64.8%
[16]; high dose (10 mg/kg)
  inhibition ratio of TNF-α protein content in serum: 61.9%
[16]; low dose (1 mg/kg)
  inhibition ratio of TNF-α protein content in serum: 40.2%
[16]; medium dose (3 mg/kg)
  inhibition ratio of TNF-α protein content in serum: 60.3%
[17]
  phosphorylation of TAK1: no inhibition
[7]
  inhibition ratio of IL-1β mRNA in colon tissues: 68.3%
[18]
  IC50: 580 nM
[19]; high dose (10 mg/kg)
  inhibition ratio of IL-6 mRNA in colon tissues: 48.6%
[19]; low dose (1 mg/kg)
  inhibition ratio of IL-6 mRNA in colon tissues: 26.3%
[19]; medium dose (3 mg/kg)
  inhibition ratio of IL-6 mRNA in colon tissues: 37.1%
[8]
  inhibition ratio of IL-6 mRNA in colon tissues: 65.0%
[9]
  inhibition ratio of IL-23 protein content in serum: 56.7%
[20]; high dose (10 mg/kg)
  inhibition ratio of IL-23 mRNA in colon tissues: 58.2%
[20]; low dose (1 mg/kg)
  inhibition ratio of IL-23 mRNA in colon tissues: 31.0%
[20]; medium dose (3 mg/kg)
  inhibition ratio of IL-23 mRNA in colon tissues: 51.7%
[21]; high dose (10 mg/kg)
  inhibition ratio of IL-1β protein content in serum: 51.8%
[21]; low dose (1 mg/kg)
  inhibition ratio of IL-1β protein content in serum: 40.1%
[21]; medium dose (3 mg/kg)
  inhibition ratio of IL-1β protein content in serum: 50.0%
